Assay results: patent publication US11807650B2, “NMDA receptor modulators and uses thereof” (Novartis AG, priority 2016, dated 2023)

Target: T1, human GRIN1 (transcript variant NR1-3) and GRIN2D expressed in Xenopus oocytes (Homo sapiens, UniProt O15399)
T1 construct: GenScript (GRIN2D synthesis) SC115601; host or cells: Xenopus oocytes injected with cRNA (1 GluN1 : 2 GluN2)
Assay: NR2D oocyte potentiation assay (two-electrode voltage clamp)
Format: cell-based
Conditions: 10 uM test compound; glutamate and glycine 10 μM each; holding potential −40 mV
In short: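 Xenopus oocytes were defolliculated with collagenase, then injected with 50 nL of cRNA encoding human GluN1 (NR1-3 variant) and GluN2D mixed 1:2 and kept 72 h at 16° C. Two-electrode voltage clamp at −40 mV recorded currents; after 10 μM glutamate plus 10 μM glycine reached plateau, test compound was added until a new plateau formed.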

T1 sequence (O15399 28-1336, other chains not shown): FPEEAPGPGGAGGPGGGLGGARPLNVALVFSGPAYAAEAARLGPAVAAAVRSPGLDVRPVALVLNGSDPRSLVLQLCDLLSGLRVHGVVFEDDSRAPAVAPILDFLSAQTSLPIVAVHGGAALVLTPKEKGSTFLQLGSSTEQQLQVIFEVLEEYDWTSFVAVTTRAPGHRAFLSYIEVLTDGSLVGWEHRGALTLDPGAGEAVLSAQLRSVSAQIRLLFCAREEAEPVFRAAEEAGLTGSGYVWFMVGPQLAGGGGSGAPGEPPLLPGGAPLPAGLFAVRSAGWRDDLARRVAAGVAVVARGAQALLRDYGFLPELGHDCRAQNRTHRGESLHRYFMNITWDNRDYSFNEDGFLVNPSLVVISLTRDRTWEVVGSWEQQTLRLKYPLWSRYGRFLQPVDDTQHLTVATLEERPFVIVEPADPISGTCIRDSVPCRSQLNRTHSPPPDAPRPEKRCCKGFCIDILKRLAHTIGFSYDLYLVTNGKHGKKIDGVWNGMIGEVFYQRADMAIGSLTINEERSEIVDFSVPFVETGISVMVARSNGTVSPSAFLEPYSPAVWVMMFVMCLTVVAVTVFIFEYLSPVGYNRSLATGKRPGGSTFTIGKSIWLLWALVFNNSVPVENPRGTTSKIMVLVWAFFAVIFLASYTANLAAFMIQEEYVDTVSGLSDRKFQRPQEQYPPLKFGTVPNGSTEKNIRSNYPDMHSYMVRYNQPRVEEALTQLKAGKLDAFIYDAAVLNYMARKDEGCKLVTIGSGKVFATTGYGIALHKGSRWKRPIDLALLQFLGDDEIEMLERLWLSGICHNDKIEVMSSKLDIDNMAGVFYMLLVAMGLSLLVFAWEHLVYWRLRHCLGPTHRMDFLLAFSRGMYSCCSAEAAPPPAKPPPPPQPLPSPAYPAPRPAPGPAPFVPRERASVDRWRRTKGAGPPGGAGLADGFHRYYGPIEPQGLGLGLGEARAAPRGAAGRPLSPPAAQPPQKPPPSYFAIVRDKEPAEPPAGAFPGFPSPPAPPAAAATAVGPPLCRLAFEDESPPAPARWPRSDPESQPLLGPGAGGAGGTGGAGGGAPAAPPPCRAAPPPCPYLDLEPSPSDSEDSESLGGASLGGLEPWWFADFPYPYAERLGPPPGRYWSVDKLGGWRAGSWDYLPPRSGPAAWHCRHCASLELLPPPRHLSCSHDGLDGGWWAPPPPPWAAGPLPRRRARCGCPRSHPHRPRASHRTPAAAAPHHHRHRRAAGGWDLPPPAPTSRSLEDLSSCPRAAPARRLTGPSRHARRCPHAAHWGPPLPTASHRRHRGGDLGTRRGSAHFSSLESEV

SMILES	activation at 10 µM	NR2D Oocyte % Potentiation @ 10 uM
CC(C)(C)c1ccc(-c2nc3n(c(=O)c2Br)CCCS3)cc1 [Example 28, 7-bromo-8-(4-(tert-butyl)phenyl)-3,4-dihydro-2H,6H-pyrimido[2,1-b][1,3]thiazin-6-one]	100 to 500%	
CC(C)(C)c1ccc(-c2cc3n(c(=O)c2C#N)CCCS3)cc1 [Example 68, 8-(4-(tert-butyl)phenyl)-6-oxo-3,4-dihydro-2H,6H-pyrido[2,1-b][1,3]thiazine-7-carbonitrile]	> 1000%	
CN(C)c1ccc(-c2nc3n(c(=O)c2C#N)CCCS3)cn1 [Example 66, 8-(6-(dimethylamino)pyridin-3-yl)-6-oxo-3,4-dihydro-2H,6H-pyrimido[2,1-b][1,3]thiazine-7-carbonitrile]	10 to 100%	
CC(C)(C)c1ccc(-c2nc3ccccn3c(=O)c2C#N)cn1 [Example 19, 2-(6-(tert-butyl)pyridin-3-yl)-4-oxo-4H-pyrido[1,2-a]pyrimidine-3-carbonitrile]	100 to 500%	
CC1(C)CN(c2ccc(-c3nc4n(c(=O)c3C#N)CCCS4)cn2)C1 [Example 54, 8-(6-(3,3-dimethylazetidin-1-yl)pyridin-3-yl)-6-oxo-3,4-dihydro-2H,6H-pyrimido[2,1-b][1,3]thiazine-7-carbonitrile]		Inhibitor
C[C@H]1CSc2cc(-c3cnc(C(C)(C)C)nc3)c(C#N)c(=O)n2C1 [Example 104, (R)-8-(2-(tert-butyl)pyrimidin-5-yl)-3-methyl-6-oxo-3,4-dihydro-2H,6H-pyrido[2,1-b][1,3]thiazine-7-carbonitrile]	> 1000%	
C=Cc1c(-c2ccc(C(C)(C)C)cc2)nc2n(c1=O)CCCC2 [Example 14, 2-(4-(tert-butyl)phenyl)-3-vinyl-6,7,8,9-tetrahydro-4H-pyrido[1,2-a]pyrimidin-4-one]	< 10%	
CCN1CSc2nc(-c3ccc(C(C)(C)C)cc3)c(C#N)c(=O)n2C1 [Example 7, 8-(4-(tert-butyl)phenyl)-3-ethyl-6-oxo-3,4-dihydro-2H,6H-pyrimido[2,1-b][1,3,5]thiadiazine-7-carbonitrile]	10 to 100%	
Cc1csc2nc(-c3ccc(C(C)(C)C)nc3)c(C#N)c(=O)n12 [Example 35, 7-(6-(tert-butyl)pyridin-3-yl)-3-methyl-5-oxo-5H-thiazolo[3,2-a]pyrimidine-6-carbonitrile]	100 to 500%	
Cc1ccc2nc(-c3ccc(C(C)(C)C)nc3)c(C#N)c(=O)n2c1 [Example 21, 2-(6-(tert-butyl)pyridin-3-yl)-7-methyl-4-oxo-4H-pyrido[1,2-a]pyrimidine-3-carbonitrile]	100 to 500%	
CCN1CSc2nc(-c3ccc(C(C)(C)C)nc3)c(C#N)c(=O)n2C1 [Example 9, 8-(6-(tert-butyl)pyridin-3-yl)-3-ethyl-6-oxo-3,4-dihydro-2H,6H-pyrimido[2,1-b][1,3,5]thiadiazine-7-carbonitrile]	10 to 100%	
Cc1c(-c2ccc(C(C)(C)C)nc2)nc2n(c1=O)CCCS2 [Example 31, 8-(6-(tert-butyl)pyridin-3-yl)-7-methyl-3,4-dihydro-2H,6H-pyrimido[2,1-b][1,3]thiazin-6-one]	10 to 100%	
CC(C)(C)OC(=O)NCC1CSc2nc(-c3ccc(C(C)(C)C)nc3)c(C#N)c(=O)n2C1 (stereo not drawn) [Example 144, tert-butyl ((8-(6-(tert-butyl)pyridin-3-yl)-7-cyano-6-oxo-3,4-dihydro-2H,6H-pyrimido[2,1-b][1,3]thiazin-3-yl)methyl)carbamate]	> 1000%	
CC(C)C1CSc2nc(-c3ccc(C(C)(C)C)nc3)c(C#N)c(=O)n2C1 (stereo not drawn) [Example 80, 8-(6-(tert-butyl)pyridin-3-yl)-3-isopropyl-6-oxo-3,4-dihydro-2H,6H-pyrimido[2,1-b][1,3]thiazine-7-carbonitrile]	100 to 500%	
CC1(c2ncc(-c3cc4n(c(=O)c3C#N)CCCS4)cc2F)CC1 [Example 136, 8-[5-fluoro-6-(1-methyl-cyclopropyl)pyridin-3-yl]-6-oxo-2H,3H,4H,6H-pyrido [2,1-b][1,3] thiazine-7-carbonitrile]	> 1000%	
CC1CSc2nc(-c3ccc(C(C)(C)C#N)nc3)c(C#N)c(=O)n2C1 (stereo not drawn) [Example 79, 8-[6-(1-cyano-1-methylethyl)pyridin-3-yl]-3-methyl-6-oxo-2H,3H,4H,6H-pyrimido[2,1-b] [1,3]thiazine-7-carbonitrile]	100 to 500%	
CC(C)(CF)c1ccc(-c2nc3n(c(=O)c2C#N)CCCS3)cn1 [Example 152, 8-(6-(1-fluoro-2-methylpropan-2-yl)pyridin-3-yl)-6-oxo-3,4-dihydro-2H,6H-pyrimido[2,1-b][1,3]thiazine-7-carbonitrile]	100 to 500%	
C[C@H]1CSc2cc(-c3ccc(C4(C)CC4)nc3)c(C#N)c(=O)n2C1 [Example 117, (R)-3-methyl-8-(6-(1-methylcyclopropyl)pyridin-3-yl)-6-oxo-3,4-dihydro-2H,6H-pyrido[2,1-b][1,3]thiazine-7-carbonitrile]	> 1000%	
CC(C)(C)c1ccc(-c2nc3n(c(=O)c2C#N)CC=CCS3)cn1 [Example 2, 2-(6-(tert-butyl)pyridin-3-yl)-4-oxo-6,9-dihydro-4H-pyrimido[2,1-b][1,3]thiazepine-3-carbonitrile]	10 to 100%	
CC1CSc2nc(-c3ccc(C4(C)COC4)nc3)c(C#N)c(=O)n2C1 (stereo not drawn) [Example 153, 3-methyl-8-(6-(3-methyloxetan-3-yl)pyridin-3-yl)-6-oxo-3,4-dihydro-2H,6H-pyrimido[2,1-b][1,3]thiazine-7-carbonitrile]	100 to 500%	
C[C@@H]1CSc2nc(-c3ccc(C4(C)CC4)nc3)c(C#N)c(=O)n2C1 [Example 116, (S)-3-methyl-8-(6-(1-methylcyclopropyl)pyridin-3-yl)-6-oxo-3,4-dihydro-2H,6H-pyrimido[2,1-b][1,3]thiazine-7-carbonitrile]	> 1000%	

Further lines, results first:

activation at 10 µM	NR2D Oocyte % Potentiation @ 10 uM	SMILES
500 to 1000%		COc1cc(-c2nc3n(c(=O)c2C#N)CCCS3)cnc1C(C)(C)C [Example 60, 8-(6-(tert-butyl)-5-methoxypyridin-3-yl)-6-oxo-3,4-dihydro-2H,6H-pyrimido[2,1-b][1,3]thiazine-7-carbonitrile]
100 to 500%		COC(=O)C1CSc2nc(-c3cnc(C(C)(C)C)nc3)c(C#N)c(=O)n2C1 (stereo not drawn) [Example 89, methyl 8-(2-(tert-butyl)pyrimidin-5-yl)-7-cyano-6-oxo-3,4-dihydro-2H,6H-pyrimido[2,1-b][1,3]thiazine-3-carboxylate]
100 to 500%		CC(C)(C)c1ncc(-c2nc3n(c(=O)c2C#N)CC(F)CS3)cn1 (stereo not drawn) [Example 17, 8-(2-tert-butylpyrimidin-5-yl)-3-fluoro-6-oxo-2H,3H, 4H,6H-pyrimido [2,1-b][1,3] thiazine-7-carbonitrile]
> 1000%		CC(C)(C)c1ncc(-c2nc3n(c(=O)c2C#N)C[C@@H](CO)CS3)cc1F [Example 157, (S)-8-(6-(tert-butyl)-5-fluoropyridin-3-yl)-3-(hydroxymethyl)-6-oxo-3,4-dihydro-2H,6H-pyrimido[2,1-b][1,3]thiazine-7-carbonitrile]
> 1000%		C[C@H]1CSc2nc(-c3cnc(C(C)(C)C)c(O)c3)c(C#N)c(=O)n2C1 [Example 139, (R)-8-(6-(tert-butyl)-5-hydroxypyridin-3-yl)-3-methyl-6-oxo-3,4-dihydro-2H,6H-pyrimido[2,1-b][1,3]thiazine-7-carbonitrile]
> 1000%		C[C@H]1CSc2cc(-c3cnc(C(C)(C)C)c(F)c3)c(C#N)c(=O)n2C1 [Example 106, (R)-8-(6-(tert-butyl)-5-fluoropyridin-3-yl)-3-methyl-6-oxo-3,4-dihydro-2H,6H-pyrido[2,1-b][1,3]thiazine-7-carbonitrile]
> 1000%		COCOC[C@H]1CSc2nc(-c3cnc(C(C)(C)C)c(F)c3)c(C#N)c(=O)n2C1 [Example 171, (S)-8-(6-(tert-butyl)-5-fluoropyridin-3-yl)-3-((methoxymethoxy)methyl)-6-oxo-3,4-dihydro-2H,6H-pyrimido[2,1-b][1,3]thiazine-7-carbonitrile]
500 to 1000%		C[C@@H]1CSc2nc(-c3cnc(C(C)(C)C)c(O)c3)c(C#N)c(=O)n2C1 [Example 140, (S)-8-(6-(tert-butyl)-5-hydroxypyridin-3-yl)-3-methyl-6-oxo-3,4-dihydro-2H,6H-pyrimido[2,1-b][1,3]thiazine-7-carbonitrile]
100 to 500%		COC(=O)C1CSc2nc(-c3ccc(C(C)(C)C)nc3)c(C#N)c(=O)n2C1 (stereo not drawn) [Example 86, methyl 8-(6-(tert-butyl)pyridin-3-yl)-7-cyano-6-oxo-3,4-dihydro-2H,6H-pyrimido[2,1-b][1,3]thiazine-3-carboxylate]
> 1000%		COC[C@H]1CSc2nc(-c3cnc(C(C)(C)C)c(F)c3)c(C#N)c(=O)n2C1 [Example 166, (S)-8-(6-(tert-butyl)-5-fluoropyridin-3-yl)-3-(methoxymethyl)-6-oxo-3,4-dihydro-2H,6H-pyrimido[2,1-b][1,3]thiazine-7-carbonitrile]
100 to 500%		CC(C)(C)c1ccc(-c2nc3n(c(=O)c2C#N)C[C@H](CO)CS3)cn1 [Example 130, (R)-8-(6-(tert-butyl)pyridin-3-yl)-3-(hydroxymethyl)-6-oxo-3,4-dihydro-2H,6H-pyrimido[2,1-b][1,3]thiazine-7-carbonitrile]
100 to 500%		CC(C)(C)c1ncc(-c2nc3n(c(=O)c2C#N)C[C@@H](CO)CS3)cn1 [Example 137, (S)-8-(2-(tert-butyl)pyrimidin-5-yl)-3-(hydroxymethyl)-6-oxo-3,4-dihydro-2H,6H-pyrimido[2,1-b][1,3]thiazine-7-carbonitrile]
